Measured values published in ChEMBL document CHEMBL4002629, “Design, synthesis and biological evaluation of novel 3-substituted 4-anilino-coumarin derivatives as antitumor agents” (Bioorg Med Chem Lett, 2017).

Experiments:
MCF7 = assay: Antiproliferative activity against human MCF7 cells after 48 hrs by MTT assay; assay type: functional, cell-based; conditions: MCF7, 48 h
HepG2 = assay: Antiproliferative activity against human HepG2 cells after 48 hrs by MTT assay; assay type: functional, cell-based; conditions: HepG2, 48 h
HCT-116 = assay: Antiproliferative activity against human HCT116 cells after 48 hrs by MTT assay; assay type: functional, cell-based; conditions: HCT-116, 48 h
PANC-1 = assay: Antiproliferative activity against human PANC1 cells after 48 hrs by MTT assay; assay type: functional, cell-based; conditions: PANC-1, 48 h
HUVEC = assay: Antiproliferative activity against HUVEC after 48 hrs by MTT assay; assay type: cell-based; conditions: Homo sapiens
[1] = Selectivity index, ratio of IC50 for HUVEC to IC50 for human MCF7 cells
[2] = Selectivity index, ratio of IC50 for HUVEC to IC50 for human HepG2 cells
[3] = Selectivity index, ratio of IC50 for HUVEC to IC50 for human HCT116 cells
[4] = Selectivity index, ratio of IC50 for HUVEC to IC50 for human PANC1 cells

COc1ccc(-c2c(Nc3ccc4c(c3)OCO4)c3ccc(OC)cc3oc2=O)cc1
IC50 (MCF7): > 100 µM
IC50 (HepG2): > 100 µM

COc1ccc(-c2c(Nc3ccc4c(c3)OCO4)c3ccccc3oc2=O)cc1
IC50 (MCF7): > 100 µM
IC50 (HepG2): > 100 µM

COc1ccc(-c2c(Nc3cccc(C(F)(F)F)c3)c3ccc(O)cc3oc2=O)cc1
IC50 (MCF7): 49.1 µM
IC50 (HepG2): 53.6 µM
IC50 (HCT-116): 55.9 µM
IC50 (PANC-1): 67.2 µM

COc1ccc(Nc2c(C(=O)C(F)(F)F)c(=O)oc3ccc(OC)cc23)cc1
IC50 (MCF7): > 100 µM
IC50 (HepG2): > 100 µM

COc1ccc(Nc2c(-c3ccc(OC)cc3)c(=O)oc3cc(OC)ccc23)cc1
IC50 (MCF7): 39.2 µM
IC50 (HepG2): 39.6 µM
IC50 (HCT-116): 35.1 µM
IC50 (PANC-1): 41 µM

COc1ccc(-c2c(Nc3cc(OC)c(OC)c(OC)c3)c3ccc(O)cc3oc2=O)cc1
IC50 (MCF7): 56 µM
IC50 (HepG2): 49.6 µM
IC50 (HCT-116): 64.2 µM
IC50 (PANC-1): 63.9 µM

COc1ccc(-c2c(Nc3ccc(NC(C)=O)cc3)c3ccccc3oc2=O)cc1
IC50 (MCF7): > 100 µM
IC50 (HepG2): > 100 µM

COc1ccc(-c2c(Nc3ccc(C)c(O)c3)c3ccc(OC)cc3oc2=O)cc1
IC50 (MCF7): 34.4 µM
IC50 (HepG2): 22.5 µM
IC50 (HCT-116): 26.5 µM
IC50 (PANC-1): 31.3 µM

COc1ccc(-c2c(Nc3ccc4c(c3)OCO4)c3ccc(O)cc3oc2=O)cc1
IC50 (MCF7): 89.5 µM
IC50 (HepG2): 79 µM
IC50 (HCT-116): 41.2 µM
IC50 (PANC-1): 48.2 µM

COc1ccc2oc(=O)c(C(=O)C(F)(F)F)c(Nc3cc(OC)c(OC)c(OC)c3)c2c1
IC50 (MCF7): 15 µM
IC50 (HepG2): 12.3 µM
IC50 (HCT-116): 19.5 µM
IC50 (PANC-1): 23.8 µM

COc1ccc2oc(=O)c(C(=O)C(F)(F)F)c(Nc3ccc(C)c(O)c3)c2c1
IC50 (MCF7): 20.1 µM
IC50 (HepG2): 6.71 µM
IC50 (HCT-116): 4.62 µM
IC50 (PANC-1): 5.62 µM
IC50 (HUVEC): 29.4 µM
Ratio IC50 [1]: 1.46
Ratio IC50 [2]: 4.39
Ratio IC50 [3]: 6.37
Ratio IC50 [4]: 5.23

CCOc1ccc(Nc2c(-c3ccc(OC)cc3)c(=O)oc3cc(OC)ccc23)cc1
IC50 (MCF7): 24.3 µM
IC50 (HepG2): 31.2 µM
IC50 (HCT-116): 33 µM
IC50 (PANC-1): 36.1 µM

COc1ccc2oc(=O)c(C(=O)C(F)(F)F)c(Nc3ccc(F)cc3)c2c1
IC50 (MCF7): > 100 µM
IC50 (HepG2): > 100 µM

COc1ccc2c(Nc3cc(OC)c(OC)c(OC)c3)c(C(=O)C(F)(F)F)c(=O)oc2c1
IC50 (MCF7): 19.2 µM
IC50 (HepG2): 26.4 µM
IC50 (HCT-116): 17 µM
IC50 (PANC-1): 24.1 µM

COc1ccc2c(Nc3ccc4c(c3)OCO4)c(C(=O)C(F)(F)F)c(=O)oc2c1
IC50 (MCF7): 37.4 µM
IC50 (HepG2): 10.5 µM
IC50 (HCT-116): 12.5 µM
IC50 (PANC-1): 15.8 µM

COc1ccc(-c2c(Nc3ccc(NC(C)=O)cc3)c3ccc(OC)cc3oc2=O)cc1
IC50 (MCF7): 85.8 µM
IC50 (HepG2): > 100 µM

COc1ccc(-c2c(Nc3ccc(F)cc3)c3ccc(O)cc3oc2=O)cc1
IC50 (MCF7): 71.5 µM
IC50 (HepG2): 65.6 µM
IC50 (HCT-116): 66.1 µM
IC50 (PANC-1): 75 µM

COc1ccc(Nc2c(-c3ccc(OC)cc3)c(=O)oc3cc(O)ccc23)cc1
IC50 (MCF7): > 100 µM
IC50 (HepG2): 78.8 µM
